Assay results published in patent US20260297085A1, “1 H-PYRROLO[2,3-B]PYRIDIN-4-YL]-2-OXOPYRROLIDINE-3-CARBONITRILE DERIVATIVES AS TYROSINE KINASE 2 (TYK2) INHIBITORS FOR THE TREATMENT OF INFLAMMATORY DISEASES” (BIOGEN MA INC., priority 2023, published 2026).
Counter-ions that a name gives are not always drawn.

Experiments:
[1] = molecular target: T1, human TYK2 kinase domain (JH1) (Homo sapiens, UniProt P29597); experiment: JH1 biochemical assay for TYK2 (ADP-Glo kinase assay, recombinant JH1 catalytic domain, JAK3-974 peptide, 10 μM ATP); settings: JH1 kinase domain, ADP-Glo
T1 construct: recombinantly generated catalytic kinase (also known as JH1) domain of human JAK1, JAK2, JAK3 and TYK2
T1 sequence (P29597 897-1176 limits assumed): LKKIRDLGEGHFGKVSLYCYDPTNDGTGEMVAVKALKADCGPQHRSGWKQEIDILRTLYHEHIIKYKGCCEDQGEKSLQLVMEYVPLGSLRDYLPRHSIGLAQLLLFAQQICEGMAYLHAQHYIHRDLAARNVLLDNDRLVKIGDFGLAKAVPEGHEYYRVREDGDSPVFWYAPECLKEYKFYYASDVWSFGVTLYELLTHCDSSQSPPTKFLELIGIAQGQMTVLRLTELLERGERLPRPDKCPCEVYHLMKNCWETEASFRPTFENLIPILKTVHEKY
How it was run: (§1)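 Compounds were titrated in 11 points of 3-fold dilution starting at 10 μM or 1 μM. Enzyme (JAK1 4 nM, JAK2 0.2 nM, JAK3 0.3 nM, TYK2 2 nM) and 50 μM peptide reacted for 100 minutes, followed by ADP-to-luminescence detection; IC50 by 4-parameter fit.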

[2] = molecular target: T2, human JAK1 kinase domain (JH1) (Homo sapiens, UniProt P23458); experiment: JH1 biochemical assay for JAK1 (ADP-Glo kinase assay, recombinant JH1 catalytic domain, JAK3-342 peptide, 35 μM ATP); settings: JH1 kinase domain, ADP-Glo
T2 construct: recombinantly generated catalytic kinase (also known as JH1) domain of human JAK1, JAK2, JAK3 and TYK2
How it was run: as §1

[3] = molecular target: T3, human JAK2 kinase domain (JH1) (Homo sapiens, UniProt O60674); experiment: JH1 biochemical assay for JAK2 (ADP-Glo kinase assay, recombinant JH1 catalytic domain, JAK3-974 peptide, 15 μM ATP); settings: JH1 kinase domain, ADP-Glo
T3 construct: recombinantly generated catalytic kinase (also known as JH1) domain of human JAK1, JAK2, JAK3 and TYK2
How it was run: as §1

[4] = molecular target: T4, human JAK3 kinase domain (JH1) (Homo sapiens, UniProt P52333); experiment: JH1 biochemical assay for JAK3 (ADP-Glo kinase assay, recombinant JH1 catalytic domain, JAK3-974 peptide, 4 μM ATP); settings: JH1 kinase domain, ADP-Glo
T4 construct: recombinantly generated catalytic kinase (also known as JH1) domain of human JAK1, JAK2, JAK3 and TYK2
How it was run: as §1

[5] = molecular target: Tyk2 kinase activity on STAT4 in NK92 cells (Homo sapiens, UniProt P29597); experiment: pSTAT4 cell assay (MSD; NK92 cells, 30 ng/mL IL2 stimulation); assay type: cell-based; settings: 30 ng/mL IL2, 15 minutes
How it was run: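 Serum-starved NK92 cells were preincubated 1 hr with compound (10-point, four-fold dilutions from 10 μM), then stimulated with 30 ng/mL IL2 for 15 minutes. Lysates were read on an MSD plate assay using anti-STAT4 antibodies, and IC50 came from a 4-parameter logistic fit of normalized percent activity.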

[6] = molecular target: JAK2 kinase activity on STAT5 in TF1 cells (Homo sapiens, UniProt O60674); experiment: pSTAT5 cell assay (MSD; TF1 cells, 30 ng/mL IL-3 stimulation); assay type: cell-based; settings: 30 ng/mL IL-3, 15 minutes
How it was run: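 Serum-starved TF1 cells with native JAK2/STAT5 were pretreated 1 h with compound (10-point four-fold dilutions from 10 μM), then stimulated 15 min with 30 ng/mL IL-3. pSTAT5 in lysates quantified by MSD immunoassay; normalized percent activity fitted to a 4-parameter logistic curve for IC50.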

[7] = molecular target: JAK1 kinase activity on STAT3 in TF1 cells (Homo sapiens, UniProt P23458); experiment: pSTAT3 cell assay (MSD; TF1 cells, 30 ng/mL IL-6 stimulation); assay type: cell-based; settings: 30 ng/mL IL-6, 15 minutes
How it was run: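 Serum-starved TF1 cells with endogenous JAK1/STAT3 were pretreated 1 h with compound in a 10-point four-fold dilution series from 10 μM, then stimulated with 30 ng/mL IL-6 for 15 min. pSTAT3 in lysates was quantified by MSD immunoassay, and IC50 came from 4-parameter logistic fits.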

T4 sequence (P52333 822-1111 limits assumed): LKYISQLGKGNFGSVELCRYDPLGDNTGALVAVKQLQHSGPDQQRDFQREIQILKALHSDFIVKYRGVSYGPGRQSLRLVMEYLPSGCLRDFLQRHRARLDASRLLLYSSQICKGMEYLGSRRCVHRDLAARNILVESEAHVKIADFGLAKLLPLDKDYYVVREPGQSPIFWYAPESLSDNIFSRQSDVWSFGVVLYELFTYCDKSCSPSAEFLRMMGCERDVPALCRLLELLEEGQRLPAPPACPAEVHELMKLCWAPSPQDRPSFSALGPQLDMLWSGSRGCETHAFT
Chain of JAK2 kinase activity on STAT5 in TF1 cells (O60674 whole entry): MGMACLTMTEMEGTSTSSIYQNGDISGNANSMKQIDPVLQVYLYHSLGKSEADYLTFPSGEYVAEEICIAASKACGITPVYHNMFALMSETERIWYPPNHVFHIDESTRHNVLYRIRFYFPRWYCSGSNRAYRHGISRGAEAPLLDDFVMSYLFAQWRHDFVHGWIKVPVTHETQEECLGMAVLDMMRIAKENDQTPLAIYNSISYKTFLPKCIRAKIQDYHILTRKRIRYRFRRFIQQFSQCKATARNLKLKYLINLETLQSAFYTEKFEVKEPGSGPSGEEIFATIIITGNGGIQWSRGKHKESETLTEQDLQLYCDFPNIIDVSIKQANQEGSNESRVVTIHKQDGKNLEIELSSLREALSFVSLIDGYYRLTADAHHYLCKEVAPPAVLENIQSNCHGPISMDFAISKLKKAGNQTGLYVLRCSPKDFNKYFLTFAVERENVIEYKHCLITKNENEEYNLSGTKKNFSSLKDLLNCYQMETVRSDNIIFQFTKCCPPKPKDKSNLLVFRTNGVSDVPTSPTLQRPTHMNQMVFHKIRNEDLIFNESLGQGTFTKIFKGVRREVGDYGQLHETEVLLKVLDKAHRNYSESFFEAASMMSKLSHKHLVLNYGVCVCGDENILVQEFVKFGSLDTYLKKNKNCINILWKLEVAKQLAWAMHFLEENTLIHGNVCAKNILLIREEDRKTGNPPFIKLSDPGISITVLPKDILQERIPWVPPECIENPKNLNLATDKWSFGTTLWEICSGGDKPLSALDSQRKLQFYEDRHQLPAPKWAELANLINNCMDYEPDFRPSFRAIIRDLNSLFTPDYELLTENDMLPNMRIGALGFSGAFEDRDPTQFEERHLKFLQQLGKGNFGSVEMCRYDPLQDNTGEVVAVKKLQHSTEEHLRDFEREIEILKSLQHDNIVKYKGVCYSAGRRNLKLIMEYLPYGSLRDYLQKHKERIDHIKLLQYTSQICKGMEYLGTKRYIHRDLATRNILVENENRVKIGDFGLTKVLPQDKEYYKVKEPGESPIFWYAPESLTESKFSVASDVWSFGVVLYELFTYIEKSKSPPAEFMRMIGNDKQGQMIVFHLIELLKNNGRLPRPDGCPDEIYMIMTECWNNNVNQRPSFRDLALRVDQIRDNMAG
T3 sequence (O60674 849-1124 limits assumed): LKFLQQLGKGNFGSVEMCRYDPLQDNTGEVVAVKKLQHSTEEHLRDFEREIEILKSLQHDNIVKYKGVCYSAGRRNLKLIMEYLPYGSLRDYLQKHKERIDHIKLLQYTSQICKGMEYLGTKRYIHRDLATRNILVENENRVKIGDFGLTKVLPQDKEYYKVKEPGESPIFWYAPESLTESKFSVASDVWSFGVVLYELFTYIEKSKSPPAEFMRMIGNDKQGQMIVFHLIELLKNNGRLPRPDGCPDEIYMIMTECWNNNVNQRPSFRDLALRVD
T2 sequence (P23458 875-1153 limits assumed): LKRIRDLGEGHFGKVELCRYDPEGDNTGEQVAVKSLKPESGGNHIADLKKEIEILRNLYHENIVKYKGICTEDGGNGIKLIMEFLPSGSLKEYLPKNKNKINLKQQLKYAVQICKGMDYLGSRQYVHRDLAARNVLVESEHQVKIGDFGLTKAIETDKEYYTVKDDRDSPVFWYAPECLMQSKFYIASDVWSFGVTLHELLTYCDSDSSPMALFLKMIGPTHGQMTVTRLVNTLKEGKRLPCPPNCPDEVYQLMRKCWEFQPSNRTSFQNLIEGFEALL
Chain of JAK1 kinase activity on STAT3 in TF1 cells (P23458 whole entry): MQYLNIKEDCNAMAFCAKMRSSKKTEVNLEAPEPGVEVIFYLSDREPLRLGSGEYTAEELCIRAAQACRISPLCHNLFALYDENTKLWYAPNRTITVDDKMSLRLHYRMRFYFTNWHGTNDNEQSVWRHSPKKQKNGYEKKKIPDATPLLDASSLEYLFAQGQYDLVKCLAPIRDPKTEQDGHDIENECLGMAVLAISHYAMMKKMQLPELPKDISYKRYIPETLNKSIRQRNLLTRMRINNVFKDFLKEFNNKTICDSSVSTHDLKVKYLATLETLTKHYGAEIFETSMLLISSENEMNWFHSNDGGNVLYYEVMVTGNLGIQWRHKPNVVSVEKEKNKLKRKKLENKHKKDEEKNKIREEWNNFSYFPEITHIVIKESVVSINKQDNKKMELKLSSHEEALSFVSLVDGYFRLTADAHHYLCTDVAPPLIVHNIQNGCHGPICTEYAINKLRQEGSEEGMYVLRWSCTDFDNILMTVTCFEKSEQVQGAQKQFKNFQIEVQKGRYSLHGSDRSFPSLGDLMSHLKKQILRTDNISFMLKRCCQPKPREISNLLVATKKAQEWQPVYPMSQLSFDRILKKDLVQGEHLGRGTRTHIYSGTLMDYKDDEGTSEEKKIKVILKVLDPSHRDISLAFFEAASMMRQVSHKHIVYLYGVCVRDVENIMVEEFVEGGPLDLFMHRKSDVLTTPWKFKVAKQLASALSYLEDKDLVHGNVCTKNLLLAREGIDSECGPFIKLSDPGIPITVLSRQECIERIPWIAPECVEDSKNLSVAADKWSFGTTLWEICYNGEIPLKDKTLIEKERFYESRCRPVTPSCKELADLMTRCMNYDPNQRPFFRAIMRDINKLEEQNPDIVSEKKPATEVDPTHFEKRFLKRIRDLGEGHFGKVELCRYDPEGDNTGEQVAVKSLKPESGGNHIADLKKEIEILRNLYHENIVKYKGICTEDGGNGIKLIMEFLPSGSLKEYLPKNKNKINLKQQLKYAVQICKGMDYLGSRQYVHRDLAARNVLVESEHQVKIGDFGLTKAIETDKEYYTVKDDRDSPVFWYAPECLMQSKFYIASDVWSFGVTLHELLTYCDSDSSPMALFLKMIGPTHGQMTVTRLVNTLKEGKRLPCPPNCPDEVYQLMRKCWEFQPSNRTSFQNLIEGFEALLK
Chain of Tyk2 kinase activity on STAT4 in NK92 cells (P29597 whole entry): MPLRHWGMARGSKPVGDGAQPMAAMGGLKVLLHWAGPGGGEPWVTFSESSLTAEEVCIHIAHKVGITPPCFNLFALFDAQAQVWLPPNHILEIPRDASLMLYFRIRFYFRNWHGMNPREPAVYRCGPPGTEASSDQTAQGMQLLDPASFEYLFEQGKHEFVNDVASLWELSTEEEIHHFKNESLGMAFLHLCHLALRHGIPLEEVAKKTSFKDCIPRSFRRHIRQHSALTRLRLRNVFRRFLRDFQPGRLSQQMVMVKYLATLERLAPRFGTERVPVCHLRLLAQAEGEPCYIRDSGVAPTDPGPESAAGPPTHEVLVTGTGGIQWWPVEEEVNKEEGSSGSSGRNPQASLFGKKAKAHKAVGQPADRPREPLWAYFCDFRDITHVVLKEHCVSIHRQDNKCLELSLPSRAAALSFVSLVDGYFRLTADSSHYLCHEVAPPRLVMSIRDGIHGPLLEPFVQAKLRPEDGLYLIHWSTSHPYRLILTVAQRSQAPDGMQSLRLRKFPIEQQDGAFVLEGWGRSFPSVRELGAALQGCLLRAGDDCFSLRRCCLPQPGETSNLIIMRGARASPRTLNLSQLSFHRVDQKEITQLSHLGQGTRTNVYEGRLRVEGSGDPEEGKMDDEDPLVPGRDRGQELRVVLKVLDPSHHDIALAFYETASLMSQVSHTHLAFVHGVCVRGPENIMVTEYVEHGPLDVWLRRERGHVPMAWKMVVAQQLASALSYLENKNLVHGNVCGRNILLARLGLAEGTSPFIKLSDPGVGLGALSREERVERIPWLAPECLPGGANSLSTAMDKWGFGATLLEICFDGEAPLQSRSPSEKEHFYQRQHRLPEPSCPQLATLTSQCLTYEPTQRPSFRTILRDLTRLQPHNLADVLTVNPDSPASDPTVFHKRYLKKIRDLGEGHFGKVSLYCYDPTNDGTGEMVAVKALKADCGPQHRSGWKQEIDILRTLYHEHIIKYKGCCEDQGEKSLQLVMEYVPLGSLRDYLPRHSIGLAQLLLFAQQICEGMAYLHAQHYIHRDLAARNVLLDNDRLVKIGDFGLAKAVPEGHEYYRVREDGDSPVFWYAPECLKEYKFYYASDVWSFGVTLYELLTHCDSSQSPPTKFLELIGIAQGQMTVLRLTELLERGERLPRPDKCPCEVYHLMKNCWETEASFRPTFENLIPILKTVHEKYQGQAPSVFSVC

| Compound | IC50 [1] [µM] | IC50 [2] [µM] | IC50 [3] [µM] | IC50 [4] [µM] | IC50 [5] [µM] | IC50 [6] [µM] | IC50 [7] [µM] |
| --- | --- | --- | --- | --- | --- | --- | --- |
| C[C@@H]1CN(c2ccnn3cc(-c4cnn(-c5ccccn5)c4)cc23)C(=O)[C@]1(C#N)C1CC1 [Example 158, (3R,4S)-3-cyclopropyl-4-methyl-2-oxo-1-(6-(1-(pyridin-2-yl)-1H-pyrazol-4-yl)pyrrolo[1,2-b]pyridazin-4-yl)pyrrolidine-3-carbonitrile] | < 0.005 | 0.1 to 1 | 0.1 to 1 | 0.1 to 1 | > 0.1 | > 10 | 1 to 5 |
| C[C@@H]1CN(c2ccnn3cc(-c4cnn(-c5ccncc5)c4)cc23)C(=O)[C@]1(C#N)C1CC1 [Example 160, (3R,4S)-3-cyclopropyl-4-methyl-2-oxo-1-(6-(1-(pyridin-4-yl)-1H-pyrazol-4-yl)pyrrolo[1,2-b]pyridazin-4-yl)pyrrolidine-3-carbonitrile] | < 0.005 | 0.1 to 1 | 0.1 to 1 | 0.1 to 1 | 0.05 to 0.1 | 1 to 5 | 1 to 5 |
| C[C@@H]1CN(c2ccnn3cc(-c4cnn(S(C)(=O)=O)c4)cc23)C(=O)[C@]1(C#N)C1CC1 [Example 163, (3R,4S)-3-cyclopropyl-4-methyl-1-(6-(1-(methylsulfonyl)-1H-pyrazol-4-yl)pyrrolo[1,2-b]pyridazin-4-yl)-2-oxopyrrolidine-3-carbonitrile] | < 0.005 | 0.1 to 1 | 0.1 to 1 | 0.1 to 1 | > 0.1 | 5 to 10 | 1 to 5 |
| [2H]C([2H])([2H])n1cc(-c2cc3c(N4C[C@@H](C)[C@@](C#N)(C5CC5)C4=O)ccnn3c2)cn1 [Example 164, (3R,4 S)-3-cyclopropyl-4-methyl-1-(6-(1-(methyl-d3)-1H-pyrazol-4-yl)pyrrolo[1,2-b]pyridazin-4-yl)-2-oxopyrrolidine-3-carbonitrile] | < 0.005 | < 0.1 | 0.1 to 1 | < 0.1 | 0.02 to 0.05 | 5 to 10 | 1 to 5 |
| Cc1nn(C)cc1-c1cc2c(N3C[C@@H](C)[C@@](C#N)(C4CC4)C3=O)ccnn2c1 [Example 165, (3R,4S)-3-cyclopropyl-1-(6-(1,3-dimethyl-1H-pyrazol-4-yl)pyrrolo[1,2-b]pyridazin-4-yl)-4-methyl-2-oxopyrrolidine-3-carbonitrile] | < 0.005 | 0.1 to 1 | 0.1 to 1 | 0.1 to 1 | 0.02 to 0.05 | 5 to 10 | 1 to 5 |
| Cc1c(-c2cc3c(N4C[C@@H](C)[C@@](C#N)(C5CC5)C4=O)ccnn3c2)cnn1C [Example 166, (3R,4S)-3-cyclopropyl-1-(6-(1,5-dimethyl-1H-pyrazol-4-yl)pyrrolo[1,2-b]pyridazin-4-yl)-4-methyl-2-oxopyrrolidine-3-carbonitrile] | 0.005 to 0.02 | 0.1 to 1 | 0.1 to 1 | 0.1 to 1 | > 0.1 | > 10 | > 10 |
| CC(C)n1cc(-c2cc3c(N4C[C@@H](C)[C@@](C#N)(C5CC5)C4=O)ccnn3c2)cn1 [Example 167, (3R,4S)-3-cyclopropyl-1-(6-(1-isopropyl-1H-pyrazol-4-yl)pyrrolo[1,2-b]pyridazin-4-yl)-4-methyl-2-oxopyrrolidine-3-carbonitrile] | < 0.005 | < 0.1 | < 0.1 | < 0.1 | 0.02 to 0.05 | 1 to 5 | 0.1 to 1 |
| C[C@@H]1CN(c2ccnn3cc(-c4cnn(CC#N)c4)cc23)C(=O)[C@]1(C#N)C1CC1 [Example 168, (3R,4S)-1-(6-(1-(cyanomethyl)-1H-pyrazol-4-yl)pyrrolo[1,2-b]pyridazin-4-yl)-3-cyclopropyl-4-methyl-2-oxopyrrolidine-3-carbonitrile] | < 0.005 | < 0.1 | < 0.1 | < 0.1 | 0.05 to 0.1 | 1 to 5 | 1 to 5 |
| C[C@@H]1CN(c2ccnn3cc(-c4cnn(C5CCCCC5)c4)cc23)C(=O)[C@]1(C#N)C1CC1 [Example 169, (3R,4S)-1-(6-(1-cyclohexyl-1H-pyrazol-4-yl)pyrrolo[1,2-b]pyridazin-4-yl)-3-cyclopropyl-4-methyl-2-oxopyrrolidine-3-carbonitrile] | < 0.005 | < 0.1 | < 0.1 | < 0.1 | > 0.1 | 1 to 5 | 1 to 5 |
| C[C@@H]1CN(c2ccnn3cc(-c4cnn(C5CCCC5)c4)cc23)C(=O)[C@]1(C#N)C1CC1 [Example 170, (3R,4S)-1-(6-(1-cyclopentyl-1H-pyrazol-4-yl)pyrrolo[1,2-b]pyridazin-4-yl)-3-cyclopropyl-4-methyl-2-oxopyrrolidine-3-carbonitrile] | < 0.005 | < 0.1 | < 0.1 | < 0.1 | > 0.1 | 5 to 10 | 5 to 10 |

Continued, values first:

| IC50 [1] [µM] | IC50 [2] [µM] | IC50 [3] [µM] | IC50 [4] [µM] | IC50 [5] [µM] | IC50 [6] [µM] | IC50 [7] [µM] | Compound |
| --- | --- | --- | --- | --- | --- | --- | --- |
| 0.005 to 0.02 | 0.1 to 1 | 0.1 to 1 | 0.1 to 1 | > 0.1 | > 10 | 1 to 5 | C[C@@H]1CN(c2ccnn3cc(-c4cccc(C(F)F)n4)cc23)C(=O)[C@]1(C#N)C1CC1 [Example 135, (3R,4S)-3-cyclopropyl-1-(6-(6-(difluoromethyl)pyridin-2-yl)pyrrolo[1,2-b]pyridazin-4-yl)-4-methyl-2-oxopyrrolidine-3-carbonitrile trifluoroacetate] |
| 0.005 to 0.02 | 0.1 to 1 | 0.1 to 1 | 0.1 to 1 | > 0.1 | > 10 | 5 to 10 | COc1ccc(-c2cc3c(N4C[C@@H](C)[C@@](C#N)(C5CC5)C4=O)ccnn3c2)nc1 [Example 145, (3R,4S)-3-cyclopropyl-1-(6-(5-methoxypyridin-2-yl)pyrrolo[1,2-b]pyridazin-4-yl)-4-methyl-2-oxopyrrolidine-3-carbonitrile trifluoroacetate] |
| < 0.005 | < 0.1 | < 0.1 | < 0.1 | 0.05 to 0.1 | 1 to 5 | 0.1 to 1 | C[C@@H]1CN(c2ccnn3cc(-c4cnn(C5CC(F)(F)C5)c4)cc23)C(=O)[C@]1(C#N)C1CC1 [Example 157, (3R,4S)-3-cyclopropyl-1-(6-(1-(3,3-difluorocyclobutyl)-1H-pyrazol-4-yl)pyrrolo[1,2-b]pyridazin-4-yl)-4-methyl-2-oxopyrrolidine-3-carbonitrile] |
| < 0.005 | 0.1 to 1 | 0.1 to 1 | 0.1 to 1 | 0.05 to 0.1 | 5 to 10 | 1 to 5 | C[C@@H]1CN(c2ccnn3cc(-c4cnn(-c5cccnc5)c4)cc23)C(=O)[C@]1(C#N)C1CC1 [Example 159, (3R,4S)-3-cyclopropyl-4-methyl-2-oxo-1-(6-(1-(pyridin-3-yl)-1H-pyrazol-4-yl)pyrrolo[1,2-b]pyridazin-4-yl)pyrrolidine-3-carbonitrile] |
| < 0.005 | 0.1 to 1 | 0.1 to 1 | 0.1 to 1 | 0.02 to 0.05 | 1 to 5 | 1 to 5 | C[C@@H]1CN(c2ccnn3cc(-c4cnn(C5CC5)c4)cc23)C(=O)[C@]1(C#N)C1CC1 [Example 161, (3R,4S)-3-cyclopropyl-1-(6-(1-cyclopropyl-1H-pyrazol-4-yl)pyrrolo[1,2-b]pyridazin-4-yl)-4-methyl-2-oxopyrrolidine-3-carbonitrile] |
| < 0.005 | < 0.1 | < 0.1 | < 0.1 | 0.02 to 0.05 | 1 to 5 | 1 to 5 | C[C@@H]1CN(c2ccnn3cc(-c4cnn(C5CCOC5)c4)cc23)C(=O)[C@]1(C#N)C1CC1 (stereo partly drawn) [Example 162, (3R,4S)-3-cyclopropyl-4-methyl-2-oxo-1-(6-(1-(tetrahydrofuran-3-yl)-1H-pyrazol-4-yl)pyrrolo[1,2-b]pyridazin-4-yl)pyrrolidine-3-carbonitrile] |
